According to patent US10597388B2, “Pyridazinone herbicides” (FMC CORPORATION, priority 2014, dated 2020):

Tests used:
Type in all cases: in vivo
[1] = system: barnyardgrass (Echinochloa crus-galli); assay: Test C greenhouse herbicide test, pre- and postemergence
How it was run: (§1)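 Greenhouse pots; pre-em on seeded loam:sand blend, post-em on 2–18 cm plants (1–4 leaf) in sphagnum peat/vermiculite medium. Formulation: non-phytotoxic solvent + surfactant. Read-out: visual % control (0–100) vs controls at 13–15 d.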

[2] = system: blackgrass (Alopecurus myosuroides); assay: as above
How it was run: as §1

corn (Zea mays) = assay: as above
How it was run: as §1

[3] = system: crabgrass, large (large crabgrass, Digitaria sanguinalis); assay: as above
How it was run: as §1

[4] = system: foxtail, giant (giant foxtail, Setaria faberii); assay: as above
How it was run: as §1

[5] = system: johnsongrass (Sorghum halepense); assay: as above
How it was run: as §1

[6] = system: lambsquarters (Chenopodium album); assay: as above
How it was run: as §1

[7] = system: morningglory (Ipomoea coccinea); assay: as above
How it was run: as §1

[8] = system: pigweed (Amaranthus retroflexus); assay: as above
How it was run: as §1

[9] = system: ragweed (common ragweed, Ambrosia elatior); assay: as above
How it was run: as §1

[10] = system: ryegrass, Italian (Italian ryegrass, Lolium multiflorum); assay: as above
How it was run: as §1

soybean (Glycine max) = assay: as above
How it was run: as §1

[11] = system: waterhemp (common waterhemp, Amaranthus rudis); assay: as above
How it was run: as §1

[12] = system: wheat (winter wheat, Triticum aestivum); assay: as above
How it was run: as §1

kochia (Kochia scoparia) = assay: Test C greenhouse herbicide test, postemergence; details: Postemergence
How it was run: (§2)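 Greenhouse postemergence spray on plants 2–18 cm tall; response judged visually after 13–15 d relative to untreated controls using a 0 (none) to 100 (full control) scale.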

[13] = system: oat, wild (wild oat, Avena fatua); assay: Test C greenhouse herbicide test, postemergence; details: Postemergence
How it was run: as §2

[14] = Postemergence, 31 g ai/ha, scale 0 to 100 (0 no effect, 100 complete control)
[15] = Postemergence, 125 g ai/ha, scale 0 to 100, 0 is no effect, 100 is complete control
[16] = Postemergence, 250 g ai/ha, scale 0 to 100, 0 no effect, 100 complete control, 13 to 15 d
[17] = Preemergence, 31 g ai/ha, scale 0 to 100, 0 is no effect, 100 is complete control
[18] = Preemergence, 62 g ai/ha, scale 0 to 100, 0 is no effect, 100 is complete control
[19] = Preemergence, 125 g ai/ha, scale 0 to 100, 0 is no effect, 100 is complete control
[20] = Preemergence, 250 g ai/ha, scale 0 to 100 (0 no effect, 100 complete control)
[21] = postemergence, 62 g ai/ha, scale 0 to 100, 0 no effect, 100 complete control
[22] = 31 g ai/ha, scale 0 to 100 (0 no effect, 100 complete control)
[23] = 125 g ai/ha, scale 0 to 100, 0 is no effect, 100 is complete control
[24] = 250 g ai/ha, scale 0 to 100, 0 no effect, 100 complete control, 13 to 15 d

Cc1nn(C)c(=O)c(-c2c(C)sc3ccc(Cl)cc23)c1O [Compound 104]
Plant response rating, Barnyardgrass [1, 14]: 20
Plant response rating, Barnyardgrass [1, 15]: 45
Plant response rating, Barnyardgrass [1, 16]: 55
Plant response rating, Barnyardgrass [1, 17]: 10
Plant response rating, Barnyardgrass [1, 18]: 25
Plant response rating, Barnyardgrass [1, 19]: 40
Barnyardgrass plant response rating [1, 20]: 80
Barnyardgrass plant response rating [1, 21]: 35
Plant response rating, Blackgrass [2, 14]: 15
Plant response rating, Blackgrass [2, 15]: 50
Plant response rating, Blackgrass [2, 16]: 55
Plant response rating, Blackgrass [2, 17]: 5
Plant response rating, Blackgrass [2, 18]: 15
Plant response rating, Blackgrass [2, 19]: 30
Blackgrass plant response rating [2, 20]: 60
Blackgrass plant response rating [2, 21]: 35
Plant response rating, Corn (corn (Zea mays); [14]): 5
Plant response rating, Corn (corn (Zea mays); [15]): 50
Plant response rating, Corn (corn (Zea mays); [16]): 30
Plant response rating, Corn (corn (Zea mays); [17]): 5
Plant response rating, Corn (corn (Zea mays); [18]): 0
Plant response rating, Corn (corn (Zea mays); [19]): 15
Corn plant response rating (corn (Zea mays); [20]): 10
Corn plant response rating (corn (Zea mays); [21]): 80
Plant response rating, Crabgrass, Large [3, 14]: 20
Plant response rating, Crabgrass, Large [3, 15]: 35
Plant response rating, Crabgrass, Large [3, 16]: 55
Plant response rating, Crabgrass, Large [3, 17]: 40
Plant response rating, Crabgrass, Large [3, 18]: 55
Plant response rating, Crabgrass, Large [3, 19]: 55
Crabgrass, Large plant response rating [3, 20]: 60
Crabgrass, Large plant response rating [3, 21]: 30
Plant response rating, Foxtail, Giant [4, 14]: 50
Plant response rating, Foxtail, Giant [4, 15]: 75
Plant response rating, Foxtail, Giant [4, 16]: 85
Plant response rating, Foxtail, Giant [4, 17]: 75
Plant response rating, Foxtail, Giant [4, 18]: 85
Plant response rating, Foxtail, Giant [4, 19]: 75
Foxtail, Giant plant response rating [4, 20]: 100
Plant response rating, Johnsongrass [5, 14]: 10
Plant response rating, Johnsongrass [5, 15]: 5
Plant response rating, Johnsongrass [5, 16]: 5
Plant response rating, Johnsongrass [5, 17]: 10
Plant response rating, Johnsongrass [5, 18]: 20
Plant response rating, Johnsongrass [5, 19]: 20
Johnsongrass plant response rating [5, 20]: 30
Plant response rating, Lambsquarters [6, 14]: 90
Plant response rating, Lambsquarters [6, 15]: 100
Plant response rating, Lambsquarters [6, 16]: 100
Plant response rating, Lambsquarters [6, 17]: 85
Plant response rating, Lambsquarters [6, 18]: 85
Plant response rating, Lambsquarters [6, 19]: 95
Lambsquarters plant response rating [6, 20]: 95
Plant response rating, Morningglory [7, 14]: 98
Plant response rating, Morningglory [7, 15]: 100
Plant response rating, Morningglory [7, 16]: 100
Plant response rating, Morningglory [7, 17]: 80
Plant response rating, Morningglory [7, 18]: 95
Plant response rating, Morningglory [7, 19]: 100
Morningglory plant response rating [7, 20]: 98
Plant response rating, Pigweed [8, 14]: 95
Plant response rating, Pigweed [8, 15]: 100
Plant response rating, Pigweed [8, 16]: 100
Plant response rating, Pigweed [8, 17]: 100
Plant response rating, Pigweed [8, 18]: 100
Plant response rating, Pigweed [8, 19]: 100
Pigweed plant response rating [8, 20]: 100
Plant response rating, Ragweed [9, 14]: 85
Plant response rating, Ragweed [9, 15]: 98
Plant response rating, Ragweed [9, 16]: 100
Plant response rating, Ragweed [9, 17]: 85
Plant response rating, Ragweed [9, 18]: 90
Plant response rating, Ragweed [9, 19]: 95
Ragweed plant response rating [9, 20]: 100
Plant response rating, Ryegrass, Italian [10, 14]: 90
Plant response rating, Ryegrass, Italian [10, 15]: 90
Plant response rating, Ryegrass, Italian [10, 16]: 90
Plant response rating, Ryegrass, Italian [10, 17]: 55
Plant response rating, Ryegrass, Italian [10, 18]: 85
Plant response rating, Ryegrass, Italian [10, 19]: 90
Ryegrass, Italian plant response rating [10, 20]: 95
Plant response rating, Soybean (soybean (Glycine max); [14]): 0
Plant response rating, Soybean (soybean (Glycine max); [15]): 10
Plant response rating, Soybean (soybean (Glycine max); [16]): 10
Plant response rating, Soybean (soybean (Glycine max); [17]): 0
Plant response rating, Soybean (soybean (Glycine max); [18]): 0
Plant response rating, Soybean (soybean (Glycine max); [19]): 0
Soybean plant response rating (soybean (Glycine max); [20]): 0
Plant response rating, Waterhemp [11, 14]: 70
Plant response rating, Waterhemp [11, 15]: 100
Plant response rating, Waterhemp [11, 16]: 95
Plant response rating, Waterhemp [11, 17]: 75
Plant response rating, Waterhemp [11, 18]: 90
Plant response rating, Waterhemp [11, 19]: 100
Waterhemp plant response rating [11, 20]: 100
Plant response rating, Wheat [12, 14]: 0
Plant response rating, Wheat [12, 15]: 5
Plant response rating, Wheat [12, 16]: 10
Plant response rating, Wheat [12, 17]: 5
Plant response rating, Wheat [12, 18]: 5
Plant response rating, Wheat [12, 19]: 5
Wheat plant response rating [12, 20]: 0
Plant response rating, Kochia (kochia (Kochia scoparia); [22]): 95
Plant response rating, Kochia (kochia (Kochia scoparia); [23]): 95
Plant response rating, Kochia (kochia (Kochia scoparia); [24]): 100
Plant response rating, Oat, Wild [13, 22]: 80
Plant response rating, Oat, Wild [13, 23]: 90
Plant response rating, Oat, Wild [13, 24]: 90
